Values after ≈ are worked out from the molar mass of the structure shown.
Key:
[1] = biological target: T1, Orexin/Hypocretin receptor type 1 (Homo sapiens, UniProt O43613); experiment: Binding affinity to human OX1 receptor expressed in CHO cell membranes by scintillation counting analysis
T1 sequence (O43613 whole entry): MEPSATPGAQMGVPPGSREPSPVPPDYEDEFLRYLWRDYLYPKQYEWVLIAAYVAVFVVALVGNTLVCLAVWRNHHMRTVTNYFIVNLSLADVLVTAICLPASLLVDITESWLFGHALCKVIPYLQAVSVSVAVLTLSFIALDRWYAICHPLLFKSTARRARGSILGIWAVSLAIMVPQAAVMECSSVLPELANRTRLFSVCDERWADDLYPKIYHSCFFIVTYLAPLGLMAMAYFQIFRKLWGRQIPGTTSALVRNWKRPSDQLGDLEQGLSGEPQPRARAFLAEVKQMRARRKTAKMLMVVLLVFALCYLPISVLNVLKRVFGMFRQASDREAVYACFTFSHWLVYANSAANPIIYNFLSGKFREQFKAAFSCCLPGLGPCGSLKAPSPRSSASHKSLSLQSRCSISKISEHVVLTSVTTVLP

[2] = biological target: T1, Orexin/Hypocretin receptor type 1; experiment: Binding affinity to human OX1 receptor
[3] = biological target: T2, Orexin receptor type 2 (Homo sapiens, UniProt O43614); experiment: Binding affinity to human OX2 receptor
T2 sequence (O43614 whole entry): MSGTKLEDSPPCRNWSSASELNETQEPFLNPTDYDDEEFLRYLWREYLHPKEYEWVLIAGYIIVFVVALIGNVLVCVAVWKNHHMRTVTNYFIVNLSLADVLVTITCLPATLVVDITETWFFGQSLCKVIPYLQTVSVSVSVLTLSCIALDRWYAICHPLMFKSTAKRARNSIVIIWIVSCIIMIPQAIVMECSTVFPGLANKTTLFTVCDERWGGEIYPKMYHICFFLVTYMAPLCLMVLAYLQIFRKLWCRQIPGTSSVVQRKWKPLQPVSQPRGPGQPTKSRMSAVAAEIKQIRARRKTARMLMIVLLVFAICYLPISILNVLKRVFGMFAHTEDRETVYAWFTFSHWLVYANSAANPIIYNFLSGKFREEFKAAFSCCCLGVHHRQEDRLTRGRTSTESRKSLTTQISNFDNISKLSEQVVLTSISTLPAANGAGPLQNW

[4] = biological target: T2, Orexin receptor type 2; experiment: Displacement of [3H]EMPA from human OX2 receptor expressed in human PFSK-1 cells; type: cell-based
[5] = Chemical stability of the compound in pH 10 carbonate buffer assessed as compound remaining at 60 degC after 4 weeks by HPLC analysis; type: physicochemical; settings: read-out: Stability
[6] = Chemical stability of the compound in pH 10 carbonate buffer assessed as compound remaining at room temperature after 4 weeks by HPLC analysis; type: physicochemical; settings: read-out: Stability
[7] = system: Rattus norvegicus; experiment: Increase in NREM sleep time in po dosed rat electroencephalographic model administered at onset of dark phase measured for 2 hrs by telemetry device; type: functional, organism-based
[8] = Physical stability of the compound at 75% relative humidity at 40 degC after 4 weeks by PXRD analysis; type: physicochemical; settings: 672 h
[9] = Chemical stability of the compound in pH 2 phosphate buffer assessed as compound remaining at room temperature after 4 weeks by HPLC analysis; type: physicochemical; settings: read-out: Stability
[10] = Oral bioavailability in cynomolgus monkey at 10 mg/kg; type: ADME, organism-based, Macaca fascicularis; settings: in vivo
[11] = Fraction unbound in beagle dog plasma at 0.1 to 10 uM after 6 hrs by equilibrium dialysis method; type: ADME, cell-free, Canis lupus familiaris
[12] = Volume of distribution at steady state in cynomolgus monkey at 10 mg/kg, po and 1 mg/kg, iv; type: ADME, organism-based, Macaca fascicularis; settings: in vivo, read-out: Vdss
[13] = Half life in beagle dog at 1 mg/kg, iv; type: ADME, organism-based, Canis lupus familiaris; settings: in vivo
[14] = biological target: T3, Orexin receptor type 2 (Rattus norvegicus, UniProt P56719); experiment: Binding affinity to rat OX2 receptor
T3 sequence (P56719 whole entry): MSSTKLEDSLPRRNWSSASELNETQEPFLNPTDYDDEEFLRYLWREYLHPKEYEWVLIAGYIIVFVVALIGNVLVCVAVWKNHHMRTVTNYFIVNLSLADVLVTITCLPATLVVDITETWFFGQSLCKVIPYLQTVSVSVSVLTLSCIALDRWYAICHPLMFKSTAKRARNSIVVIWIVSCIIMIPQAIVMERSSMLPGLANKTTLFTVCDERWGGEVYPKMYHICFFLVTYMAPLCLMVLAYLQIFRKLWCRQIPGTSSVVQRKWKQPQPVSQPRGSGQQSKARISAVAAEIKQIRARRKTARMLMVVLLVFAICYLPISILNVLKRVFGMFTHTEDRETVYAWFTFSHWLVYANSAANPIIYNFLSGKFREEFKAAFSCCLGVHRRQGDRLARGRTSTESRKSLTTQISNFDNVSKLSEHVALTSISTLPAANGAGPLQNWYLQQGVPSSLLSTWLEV

[15] = Clearance in Sprague-Dawley rat at 10 mg/kg, po and 1 mg/kg, iv; type: ADME, organism-based; settings: in vivo
[16] = Chemical stability of the compound assessed as compound remaining at ambient relative humidity at 80 degC after 4 weeks by HPLC analysis; type: physicochemical; settings: read-out: Stability
[17] = Oral bioavailability in Sprague-Dawley rat at 10 mg/kg; type: ADME, organism-based; settings: in vivo
[18] = Chemical stability of the compound in pH 4 acetate buffer assessed as compound remaining at room temperature after 4 weeks by HPLC analysis; type: physicochemical; settings: read-out: Stability
[19] = Chemical stability of the compound assessed as compound remaining at ambient relative humidity at 22 degC after 4 weeks by HPLC analysis; type: physicochemical; settings: read-out: Stability
[20] = system: Rattus norvegicus; experiment: Reduction in NREM sleep latency in po dosed rat electroencephalographic model administered at onset of dark phase by telemetry device; type: functional, organism-based
[21] = system: Rattus norvegicus; experiment: Ex vivo OX2 receptor occupancy in po dosed Sprague-Dawley rat brain after 15 mins by autoradiographic analysis; type: functional, organism-based
[22] = Fraction unbound in mouse plasma at 0.1 to 10 uM after 6 hrs by equilibrium dialysis method; type: ADME, cell-free
[23] = system: Plasma; experiment: Plasma protein binding in rat at 1 uM after 6 hrs by equilibrium dialysis method; type: ADME, cell-free; settings: 6 h, 1 µM
[24] = Oral bioavailability in Balb/c mouse at 10 mg/kg; type: ADME, organism-based; settings: in vivo
[25] = Physical stability of the compound at ambient relative humidity at 80 degC after 4 weeks by PXRD analysis; type: physicochemical; settings: 672 h
[26] = Physical stability of the compound at ambient relative humidity at 22 degC after 4 weeks by PXRD analysis; type: physicochemical; settings: 672 h
[27] = Chemical stability of the compound in pH 2 phosphate buffer assessed as compound remaining at room temperature after 1 week by HPLC analysis; type: physicochemical; settings: read-out: Stability
[28] = Clearance in beagle dog at 10 mg/kg, po and 1 mg/kg, iv; type: ADME, organism-based, Canis lupus familiaris; settings: in vivo
[29] = Volume of distribution at steady state in Sprague-Dawley rat at 10 mg/kg, po and 1 mg/kg, iv; type: ADME, organism-based; settings: in vivo, read-out: Vdss
[30] = Half life in Sprague-Dawley rat at 1 mg/kg, iv; type: ADME, organism-based; settings: in vivo
[31] = Chemical stability of the compound in pH 2 phosphate buffer assessed as compound remaining at 60 degC after 4 weeks by HPLC analysis; type: physicochemical; settings: read-out: Stability
[32] = system: Rattus norvegicus; experiment: Ex vivo OX2 receptor occupancy in Sprague-Dawley rat brain at 30 mg/kg, po after 15 mins by autoradiographic analysis; type: functional
[33] = system: Plasma; experiment: Plasma protein binding in human at 1 uM after 6 hrs by equilibrium dialysis method; type: ADME, cell-free; settings: 6 h, 1 µM
[34] = Fraction unbound in cynomolgus monkey plasma at 0.1 to 10 uM after 6 hrs by equilibrium dialysis method; type: ADME, cell-free, Macaca fascicularis
[35] = system: Plasma; experiment: Fraction unbound in human plasma at 0.1 to 10 uM after 6 hrs by equilibrium dialysis method; type: ADME, cell-free
[36] = Volume of distribution at steady state in Balb/c mouse at 10 mg/kg, po and 1 mg/kg, iv; type: ADME, organism-based; settings: in vivo, read-out: Vdss
[37] = Clearance in cynomolgus monkey at 10 mg/kg, po and 1 mg/kg, iv; type: ADME, organism-based, Macaca fascicularis; settings: in vivo
[38] = Half life in cynomolgus monkey at 1 mg/kg, iv; type: ADME, organism-based, Macaca fascicularis; settings: in vivo
[39] = Chemical stability of the compound in pH 10 carbonate buffer assessed as compound remaining at 60 degC after 1 week by HPLC analysis; type: physicochemical; settings: read-out: Stability
[40] = system: Plasma; experiment: Fraction unbound in rat plasma at 0.1 to 10 uM after 6 hrs by equilibrium dialysis method; type: ADME, cell-free
[41] = Chemical stability of the compound in pH 7.4 phosphate buffer assessed as compound remaining at 60 degC after 1 week by HPLC analysis; type: physicochemical; settings: read-out: Stability
[42] = Chemical stability of the compound in pH 4 acetate buffer assessed as compound remaining at 60 degC after 4 weeks by HPLC analysis; type: physicochemical; settings: read-out: Stability
[43] = Chemical stability of the compound in pH 7.4 phosphate buffer assessed as compound remaining at room temperature after 4 weeks by HPLC analysis; type: physicochemical; settings: read-out: Stability
[44] = Volume of distribution at steady state in beagle dog at 10 mg/kg, po and 1 mg/kg, iv; type: ADME, organism-based, Canis lupus familiaris; settings: in vivo, read-out: Vdss
[45] = Clearance in Balb/c mouse at 10 mg/kg, po and 1 mg/kg, iv; type: ADME, organism-based; settings: in vivo
[46] = Chemical stability of the compound in pH 10 carbonate buffer assessed as compound remaining at room temperature after 1 week by HPLC analysis; type: physicochemical; settings: read-out: Stability
[47] = Chemical stability of the compound in pH 4 acetate buffer assessed as compound remaining at room temperature after 1 week by HPLC analysis; type: physicochemical; settings: read-out: Stability
[48] = Chemical stability of the compound in pH 7.4 phosphate buffer assessed as compound remaining at 60 degC after 4 weeks by HPLC analysis; type: physicochemical; settings: read-out: Stability
[49] = Chemical stability of the compound in pH 2 phosphate buffer assessed as compound remaining at 60 degC after 1 week by HPLC analysis; type: physicochemical; settings: read-out: Stability
[50] = Oral bioavailability in beagle dog at 10 mg/kg; type: ADME, organism-based, Canis lupus familiaris; settings: in vivo
[51] = Protein binding in rat brain at 5 uM after 5 hrs by equilibrium dialysis method; type: ADME, tissue-based; settings: read-out: PB (converted)
[52] = Chemical stability of the compound in pH 7.4 phosphate buffer assessed as compound remaining at room temperature after 1 week by HPLC analysis; type: physicochemical; settings: read-out: Stability
[53] = Half life in Balb/c mouse at 1 mg/kg, iv; type: ADME, organism-based; settings: in vivo
[54] = Chemical stability of the compound in pH 4 acetate buffer assessed as compound remaining at 60 degC after 1 week by HPLC analysis; type: physicochemical; settings: read-out: Stability
[55] = system: Rattus norvegicus; experiment: Effect on REM sleep time in rat electroencephalographic model at 1 to 30 mg/kg, po administered at onset of dark phase measured for 2 hrs by telemetry device; type: ADME, organism-based; settings: in vivo
[56] = Chemical stability of the compound assessed as compound remaining at 75% relative humidity at 40 degC after 4 weeks by HPLC analysis; type: physicochemical; settings: read-out: Stability

SMILES: COc1cccc(OC)c1C(=O)N1CCCN(c2nc3ccc(Cl)cc3s2)CC1
- Ki [1]: 0.216 µM

SMILES: COc1cccc(OC)c1C(=O)N1C[C@@H]2CN(c3nc4ccc(Cl)cc4s3)C[C@@H]2C1
- Ki [2]: 6.85 µM
- Ki [3]: 2.2 µM
- Ki [4]: 1.6 µM

SMILES: Cc1cc(C)nc(N2C[C@H]3CN(C(=O)c4c(F)cccc4-n4nccn4)C[C@H]3C2)n1 [SELTOREXANT]
- remaining at 672 h [5]: 102%
- remaining at 672 h [6]: 102%
- Activity [7]: Dose-dependent effect
- Stability [8]: Stable
- remaining at 672 h [9]: 102%
- bioavailability [10]: 6%
- fraction unbound at 6 h [11]: 0.096
- Vd [12]: 0.4 L/kg
- half-life [13]: 66 min
- Ki [14]: 0.01 µM
- clearance [15]: 40 mL/min/kg
- remaining at 672 h [16]: 100%
- bioavailability [17]: 24%
- remaining at 672 h [18]: 101%
- remaining at 672 h [19]: 100%
- Activity [20]: Dose-dependent effect
- EC50 [21]: 0.171 µg/mL (≈ 0.42 µM)
- Occ [21]: Dose-dependent effect
- ED50 ([21]; po): 3 mg/kg
- fraction unbound at 6 h [22]: 0.041
- PPB [23]: 92.7%
- bioavailability [24]: 16%
- Stability [25]: Stable
- Stability [26]: Stable
- remaining at 168 h [27]: 100%
- clearance [28]: 9.8 mL/min/kg
- Vd [29]: 0.7 L/kg
- half-life [30]: 18 min
- remaining at 672 h [31]: 101%
- Occ [32]: 71%
- PPB [33]: 95.9%
- fraction unbound at 6 h [34]: 0.044
- Fu [35]: 2.9%
- Vd [36]: 0.6 L/kg
- clearance [37]: 16 mL/min/kg
- half-life [38]: 24 min
- remaining at 168 h [39]: 102%
- Fu [40]: 5.6%
- remaining at 168 h [41]: 102%
- remaining at 672 h [42]: 102%
- remaining at 672 h [43]: 103%
- Vd [44]: 0.7 L/kg
- clearance [45]: 36 mL/min/kg
- remaining at 168 h [46]: 101%
- remaining at 168 h [47]: 99.7%
- remaining at 672 h [48]: 99.8%
- remaining at 168 h [49]: 101%
- bioavailability [50]: 19%
- fraction unbound at 5 h, 5 µM [51]: 0.119
- remaining at 168 h [52]: 101%
- half-life [53]: 12 min
- remaining at 168 h [54]: 99.4%
- Activity [55]: Non-toxic
- remaining at 672 h [56]: 100%

Source: ChEMBL document CHEMBL3585263, “Novel Octahydropyrrolo[3,4-c]pyrroles Are Selective Orexin-2 Antagonists: SAR Leading to a Clinical Candidate” (J Med Chem, 2015)
